The values below come from PubChem BioAssay (NCI).

Among the test systems are SF-268 CNS; HCT-15 colon; M14 melanoma; COLO 205 colon; OVCAR-8 ovarian; HL-60(TB) leukemia; EKVX NSCLC; HCC-2998 colon; OVCAR-5 ovarian.
What all share (assay): growth of human tumour cells (NCI), 48 h

Several values for one entry are separate records, joined by “and”; a condition that tells them apart may be missing. Equal values may be shown once.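 Tested at 5 concentrations; 48 h exposure; 96-well plates; endpoints linearly interpolated, else capped at highest concentration. GI50 is the concentration that inhibits growth by half. The concentration for full growth arrest is given as TGI.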 Some results are limits rather than exact numbers.

On to `O=C1c2ccccc2C(=O)C12CCc1ccccc12`, for which the TGI with SF-268 CNS, with HCT-15 colon, with M14 melanoma, with COLO 205 colon, with OVCAR-8 ovarian and in the assay with HL-60(TB) leukemia was over 100 µM throughout. The TGI in the assay with EKVX NSCLC and in the assay with HCC-2998 colon was over 100 µM in each case.
For the compound `COc1ccc(/C=C2\CCC(CCN(C)C)(C3=CCCC3)C2=O)cc1` (centres undefined), the TGI came out at 40 µM with SF-268 CNS; 51.4 µM in the assay on HCT-15 colon; 28.3 µM in the assay with M14 melanoma; 25.9 µM in the assay on COLO 205 colon; 34.9 µM in the assay with OVCAR-8 ovarian; 36.6 µM in the assay with HL-60(TB) leukemia. Moreover, the results for the TGI with OVCAR-5 ovarian, in the assay on EKVX NSCLC and in the assay on HCC-2998 colon were 47.6 µM, 39.9 µM and 32.9 µM, respectively.
`CC1(C)COC2C(N(Cc3ccccc3)Cc3ccccc3)C(=O)N21` (centres undefined): the TGI with SF-268 CNS is 82.1 µM; in the assay with HCT-15 colon, over 100 µM; in the assay with M14 melanoma it was 56.2 µM; in the assay with COLO 205 colon, 61.8 µM; in the assay on OVCAR-8 ovarian, over 100 µM; in the assay on HL-60(TB) leukemia it was 62.9 µM. Besides, the TGI with OVCAR-5 ovarian, in the assay on EKVX NSCLC and in the assay on HCC-2998 colon was over 100 µM in each case.
Take `COC(=O)C(=O)C(CC(=O)Nc1ccc(C)cc1)C(=O)OC` (centres undefined): the TGI in the assay with SF-268 CNS, with HCT-15 colon, with M14 melanoma, in the assay on OVCAR-8 ovarian, with HL-60(TB) leukemia and in the assay on OVCAR-5 ovarian was over 100 µM throughout. Besides, the TGI in the assay on EKVX NSCLC and in the assay on HCC-2998 colon was over 100 µM in each case.
As for `COc1cccc(-c2cc(=O)c3cc4c(cc3[nH]2)OCO4)c1`, the TGI in the assay with SF-268 CNS was over 69.5 µM; with HCT-15 colon it was 8.25 µM; in the assay with M14 melanoma it was 2.95 µM; in the assay on COLO 205 colon, 0.303 µM; with OVCAR-8 ovarian, 0.868 µM; in the assay with HL-60(TB) leukemia it was 0.896 µM. Moreover, the values for the TGI in the assay on OVCAR-5 ovarian, in the assay on EKVX NSCLC and in the assay on HCC-2998 colon were 3.02 µM, over 100 µM and 0.934 µM, respectively.
With `O=C1CCC2(c3ccccc3)Nc3ccccc3N12` (centres undefined), the TGI with SF-268 CNS, with HCT-15 colon, in the assay on M14 melanoma, in the assay with COLO 205 colon, in the assay on OVCAR-8 ovarian and with HL-60(TB) leukemia was over 100 µM each time. Further, the TGI in the assay on OVCAR-5 ovarian, with EKVX NSCLC and in the assay on HCC-2998 colon was over 100 µM in each case.
Regarding `COC(=O)C(C(=O)C(=O)Nc1ccc(C)cc1C)c1csc(-n2nc(-c3ccccc3)cc2-c2ccccc2)n1` (centres undefined), the TGI in the assay on SF-268 CNS, in the assay on HCT-15 colon, with M14 melanoma, with COLO 205 colon, with OVCAR-8 ovarian and with HL-60(TB) leukemia was over 100 µM each time. Moreover, the TGI in the assay on OVCAR-5 ovarian, in the assay with EKVX NSCLC and in the assay on HCC-2998 colon was over 100 µM each time.
In the case of `C=C1C(=O)C23[C@H](O)C1CC[C@H]2[C@]12COC3(O)[C@@H](O)[C@@H]1C(C)(C)CC[C@@H]2O`, the TGI with SF-268 CNS was 18.3 µM; with HCT-15 colon, 15.9 µM; in the assay on M14 melanoma, 18.5 µM; in the assay on COLO 205 colon, 2.14 µM; in the assay with OVCAR-8 ovarian, 27.2 µM; in the assay on HL-60(TB) leukemia, 47.3 µM. In addition, the TGI with OVCAR-5 ovarian came out at 32.7 µM; in the assay with EKVX NSCLC it was 34.6 µM; in the assay with HCC-2998 colon it was 29.9 µM.
For the compound `C#CCN(N=O)C(=O)ON1C(=O)CCC1=O`, the TGI in the assay on SF-268 CNS, in the assay on HCT-15 colon, in the assay with M14 melanoma, in the assay on COLO 205 colon, in the assay with OVCAR-8 ovarian and in the assay with HL-60(TB) leukemia was over 100 µM each time. In addition, the TGI with OVCAR-5 ovarian and in the assay with EKVX NSCLC was over 100 µM throughout.
For the compound `CC1CC2(S(=O)(=O)c3ccccc3)ON1CC2S(=O)(=O)c1ccccc1` (centres undefined), the TGI with SF-268 CNS, in the assay with HCT-15 colon, with M14 melanoma, in the assay with COLO 205 colon, in the assay on OVCAR-8 ovarian and in the assay on HL-60(TB) leukemia was over 100 µM in each case. The TGI in the assay on OVCAR-5 ovarian, with EKVX NSCLC and in the assay with HCC-2998 colon was over 100 µM in each case.
As to `CN(C)C(=S)/N=c1\ssc(=S)n1C`, the TGI in the assay with SF-268 CNS, with HCT-15 colon, in the assay on M14 melanoma, with OVCAR-8 ovarian, in the assay with HL-60(TB) leukemia and in the assay on OVCAR-5 ovarian was over 100 µM in each case. The TGI in the assay with EKVX NSCLC and in the assay on HCC-2998 colon was over 100 µM in each case.
Take `CC(=O)c1ccc(NC(=O)C(=O)C(C(=O)/C=C/c2ccccc2)C2OC(=O)c3ccccc32)cc1` (centres undefined): the TGI in the assay on SF-268 CNS, in the assay with HCT-15 colon, in the assay with M14 melanoma, in the assay on COLO 205 colon, in the assay with OVCAR-8 ovarian and in the assay with HL-60(TB) leukemia was over 100 µM each time. Besides, the TGI with OVCAR-5 ovarian, in the assay on EKVX NSCLC and with HCC-2998 colon was over 100 µM each time.
As to `C[N+](C)(C)CC1CCCCC1=O` (centres undefined), the TGI with HCT-15 colon amounted to 29 µM; in the assay on M14 melanoma, 30.2 µM; in the assay with COLO 205 colon it was 49.3 µM; in the assay with OVCAR-8 ovarian it was 41.1 µM; in the assay with HL-60(TB) leukemia, 34.7 µM; with EKVX NSCLC, 57.5 µM.
As for `N=c1c2ccccc2sc2nc3ccccc3n12`, the TGI in the assay with SF-268 CNS, in the assay with COLO 205 colon, with OVCAR-8 ovarian, in the assay with HL-60(TB) leukemia, in the assay with OVCAR-5 ovarian and in the assay on EKVX NSCLC was over 100 µM in each case. In addition, in the assay on HCC-2998 colon, the TGI was over 100 µM.
Turning to `O=c1cc(-c2ccccc2)[nH]c2cc(F)cc(F)c12`, the TGI was over 100 µM in the assay on SF-268 CNS; over 100 µM in the assay on HCT-15 colon; over 100 µM in the assay on M14 melanoma; 38.9 µM in the assay with COLO 205 colon; over 100 µM in the assay on OVCAR-8 ovarian; over 100 µM in the assay on HL-60(TB) leukemia. This compound also came in with a TGI with OVCAR-5 ovarian of over 100 µM.
Consider `COc1ccc(/C=C(\NC(=O)c2ccccc2)c2nc3ccccc3[nH]2)cc1OC`, for which the TGI in the assay on SF-268 CNS, in the assay with HCT-15 colon, in the assay on M14 melanoma, in the assay with COLO 205 colon, in the assay with OVCAR-8 ovarian and with HL-60(TB) leukemia was over 100 µM each time. Further, the TGI in the assay on OVCAR-5 ovarian, in the assay with EKVX NSCLC and in the assay on HCC-2998 colon was over 100 µM each time.
Take `CC(=O)OC(C(=O)[O][Sn]([CH3])([CH3])[CH3])c1ccccc1` (centres undefined): the GI50 in the assay on SF-268 CNS, with HCT-15 colon, in the assay with M14 melanoma, in the assay on COLO 205 colon, in the assay with OVCAR-8 ovarian and with HL-60(TB) leukemia was over 100 µM in each case. Also, the GI50 with OVCAR-5 ovarian, with EKVX NSCLC and in the assay on HCC-2998 colon was over 100 µM in each case. For the same compound, the TGI with SF-268 CNS, in the assay with HCT-15 colon, in the assay on M14 melanoma, in the assay with COLO 205 colon, in the assay on OVCAR-8 ovarian and in the assay with HL-60(TB) leukemia was over 100 µM each time. Also, the TGI with OVCAR-5 ovarian, in the assay on EKVX NSCLC and in the assay on HCC-2998 colon was over 100 µM throughout.
For the compound `CC1(C)OC(=S)N(c2ccccc2)C12C=Cc1cc3ccccc3nc1S2` (centres undefined), the TGI with SF-268 CNS, in the assay with HCT-15 colon, with M14 melanoma, in the assay on COLO 205 colon, in the assay on OVCAR-8 ovarian and in the assay with HL-60(TB) leukemia was over 100 µM throughout. Further, the TGI in the assay with OVCAR-5 ovarian, with EKVX NSCLC and in the assay with HCC-2998 colon was over 100 µM in each case.
Turning to `COC/N=C(\NC#N)NCOC`, the TGI in the assay on SF-268 CNS is over 100 µM; in the assay on HCT-15 colon it was over 59.4 µM; in the assay with M14 melanoma, over 100 µM; in the assay on COLO 205 colon, over 85.1 µM; with OVCAR-8 ovarian it was over 100 µM; in the assay on HL-60(TB) leukemia, over 100 µM. Besides, the TGI in the assay with OVCAR-5 ovarian, in the assay on EKVX NSCLC and in the assay with HCC-2998 colon was over 100 µM throughout.
On to `Clc1ccccc1CN1COc2c(ccc3cccnc23)C1`, for which the TGI in the assay with SF-268 CNS is 13.5 µM; in the assay with HCT-15 colon it was 14.8 µM; with M14 melanoma it was 10.8 µM; in the assay with COLO 205 colon it was 24.8 µM; in the assay on OVCAR-8 ovarian it was 15.3 µM; in the assay on HL-60(TB) leukemia, 4.33 µM. For the same compound, the TGI in the assay with OVCAR-5 ovarian was 22.8 µM; with EKVX NSCLC, 15.9 µM; in the assay with HCC-2998 colon, 19.6 µM.
With `CCOc1cccc2c1N[S@@](=O)S2`, the TGI in the assay with SF-268 CNS, with HCT-15 colon, in the assay on M14 melanoma, in the assay on HL-60(TB) leukemia and with EKVX NSCLC was over 100 µM each time.
On to `O=c1c2c(-c3ccccc3)c3ccccc3nc2cnn1-c1ccccc1`, for which the TGI with SF-268 CNS, with HCT-15 colon, in the assay on M14 melanoma, in the assay with COLO 205 colon, in the assay with OVCAR-8 ovarian and in the assay on HL-60(TB) leukemia was over 100 µM each time. Moreover, the TGI in the assay on OVCAR-5 ovarian, with EKVX NSCLC and with HCC-2998 colon was over 100 µM each time.
In the case of `COc1cc(C(=O)N[C@H]2CCc3cc(OC)c(OC)c(OC)c3-c3ccc(SC)c(=O)cc32)cc(OC)c1OC`, the TGI with SF-268 CNS is 25 µM and 49 µM; in the assay with HCT-15 colon it was 25 µM; with OVCAR-8 ovarian, 0.0478 µM; with HL-60(TB) leukemia it was 0.578 µM; with OVCAR-5 ovarian it was 25 µM; with EKVX NSCLC it was 25 µM. The compound further gave a TGI with HCC-2998 colon of 0.159 µM.
